Assay results taken from BindingDB's records for patent US20240336593 (Lnnovstonetherapeutics, 2024).
pIC50: −log10 of the molar value.

target: Protein arginine N-methyltransferase 5 (Homo sapiens, UniProt O14744); assay: Test on the inhibitory activity of the compounds of the invention against PRMT5 enzyme by radioisotopic method
Experimental: Test method: A 1× enzyme reaction buffer (10 mM Tris 8.0 (Sigma, Cat. No. T2694-1L), 0.01% Tween-20 (Sigma, Cat. No. P2287-100 ML), 1 mM DTT (Sigma, Cat. No. D0632-10G)) was prepared. […] SAM (PerkinElmer, Cat. No. NET155V001MC) were added to the 1×enzyme reaction buffer, to prepare a 25/15× mixed solution (PRMT5 final concentration: 5 nM, [3H] SAM final concentration: 0.3 μM). […] 25 µL of the reaction mixture was transferred into a FlashPlate (Streptavidin FlashPlate HTS PLUS, High Capacity, 384-well, Perkin Elmer, Cat. No. SMP410A001PK), and incubated at room temperature for 1 h. After washed three times with distilled water containing 0.1% Tween-20, the microplate was read on a MicroBeta reader for CPM data (Counts Per Minute). […] Then the inhibition rate Inh % (Y) corresponding to each concentration (X) was input in EXCEL, and the IC50 value (the half maximal inhibitory concentration) of each compound was calculated with the XLfit plug-in according to the built-in four-parameter fitting equation Y=Bottom+(Top-Bottom)/(1+(IC50/X)[…]).

Sequence of Protein arginine N-methyltransferase 5 (O14744 whole entry): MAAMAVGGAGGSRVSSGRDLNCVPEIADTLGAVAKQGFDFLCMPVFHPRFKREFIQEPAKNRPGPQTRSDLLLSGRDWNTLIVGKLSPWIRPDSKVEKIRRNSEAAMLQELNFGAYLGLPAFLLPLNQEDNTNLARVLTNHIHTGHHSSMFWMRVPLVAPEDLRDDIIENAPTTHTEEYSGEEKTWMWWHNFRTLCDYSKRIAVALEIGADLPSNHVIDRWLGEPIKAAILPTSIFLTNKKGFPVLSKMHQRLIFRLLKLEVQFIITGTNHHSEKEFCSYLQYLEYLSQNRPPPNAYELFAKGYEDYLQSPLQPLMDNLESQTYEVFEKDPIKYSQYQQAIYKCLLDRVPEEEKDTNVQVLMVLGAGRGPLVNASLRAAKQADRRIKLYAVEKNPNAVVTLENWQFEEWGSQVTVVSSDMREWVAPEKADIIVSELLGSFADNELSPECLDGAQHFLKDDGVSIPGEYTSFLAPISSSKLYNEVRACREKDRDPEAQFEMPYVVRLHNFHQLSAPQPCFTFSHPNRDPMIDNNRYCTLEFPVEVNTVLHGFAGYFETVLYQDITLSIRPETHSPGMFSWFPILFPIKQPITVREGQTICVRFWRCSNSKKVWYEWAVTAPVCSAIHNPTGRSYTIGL

pIC50, > 7.00:
Cc1cccc(Nc2cc(N3CC[C@H](N4CCc5ccccc5C4)[C@@H](O)C3)ncn2)c1 (relative stereo) [US20240336593, Example 34]
CN1CCC(Nc2cc(C(=O)N3CC[C@H](N4CCc5ccccc5C4)[C@@H](O)C3)ncn2)CC1 (relative stereo) [US20240336593, Example 100]
COc1ccccc1Nc1cc(C(=O)N2CC[C@H](N3CCc4ccccc4C3)[C@@H](O)C2)ncn1 (relative stereo) [US20240336593, Example 105]
O=C(c1cc(NC2CCN(CC(F)(F)F)CC2)ncn1)N1CC[C@H](N2CCc3ccccc3C2)[C@@H](O)C1 (relative stereo) [US20240336593, Example 121]
O=C(c1cc(NC2CCOCC2)ncn1)N1CC[C@H](O)[C@@H](N2CCc3ccccc3C2)CC1 (relative stereo) [US20240336593, Example 128]
CN1CCC(Nc2cc(C(=O)N3CC[C@H](O)[C@@H](N4CCc5ccccc5C4)CC3)ncn2)CC1 (relative stereo) [US20240336593, Example 129]
CS(=O)(=O)N1CCC(Nc2cc(C(=O)N3CC[C@H](O)[C@@H](N4CCc5ccccc5C4)CC3)ncn2)CC1 (relative stereo) [US20240336593, Example 130]
CS(=O)(=O)c1ccc(Nc2cc(C(=O)N3CC[C@H](N4CCc5ccccc5C4)[C@@H](O)C3)ncn2)cc1 (relative stereo) [US20240336593, Example 132]
CS(=O)(=O)c1cccc(Nc2cc(C(=O)N3CC[C@H](N4CCc5ccccc5C4)[C@@H](O)C3)ncn2)c1 (relative stereo) [US20240336593, Example 133]
O=C(c1cc(NC2CCS(=O)(=O)CC2)ncn1)N1CC[C@H](N2CCc3ccccc3C2)[C@@H](O)C1 (relative stereo) [US20240336593, Example 135]
O=C(c1cc(NC2CCNCC2)ncn1)N1CC[C@H](N2CCc3ccccc3C2)[C@@H](O)C1 [US20240336593, Example 112]
O=C(c1cc(NC2CCN(CCO)CC2)ncn1)N1CC[C@H](N2CCc3ccccc3C2)[C@@H](O)C1 [US20240336593, Example 122]
N#CCC(=O)N1CCC(Nc2cc(C(=O)N3CC[C@H](N4CCc5ccccc5C4)[C@@H](O)C3)ncn2)CC1 [US20240336593, Example 143]
CC(=O)N1CCC(Nc2cc(C(=O)N3CC[C@@H](N4CCc5ccccc5C4)[C@H](O)C3)nc(-c3cn[nH]c3)n2)CC1 [US20240336593, Example 145]
CO[C@H]1C[C@@H](Nc2cc(C(=O)N3CC[C@@H](N4CCc5ccccc5C4)[C@H](O)C3)nc(-c3ccccc3)n2)C1 [US20240336593, Example 146]
O=C(c1cc(NCC(F)F)nc(-n2ccnc2)n1)N1CCC(N2CCc3ccccc3C2)[C@H](O)C1 (some centres not stated) [US20240336593, Example 147]
COCCCCNc1cc(C(=O)N2CC[C@@H](N3CCc4ccccc4C3)[C@H](O)C2)nc(-c2ccccc2)n1 [US20240336593, Example 148]
